Results on two molecules are retold here after patent publication US4419123A, “Herbicidal 4-trifluoromethyl-3'-carbon-substituted-4'-substituted diphenyl ethers” (Rohm and Haas Company, priority 1981, dated 1983).

Data set [1] in a line: Preemergence herbicidal activity (% control) against monocot weeds. The data set is classed as in vivo. The settings on record: pre-emergence, 336 h, average, read-out: Herbicidal activity (% control), preemergence, monocots; for activity at 4483.4 g/ha: 4 lb./A. From the text: (§1) barnyardgrass (Echinochloa crusgalli) crabgrass (Digitaria spp.) nutsedge (Cyperus esculentus)
(§2) At 2 and 4 pounds per acre:
(§3) **Bermudagrass (Cynodon dactylon)
(§4) *downy brome (Bromus tectorum) foxtail (Setaria faberii)
(§5) Johnsongrass (Sorghum halepense) […]
(§6) quackgrass (Agropyron repens)
(§7) *ryegrass (Lolium perenne)
(§8) *wild oats (Avena factua)
(§9) *yellow millet (Panicum miliaceum)
(§10) The following test procedure is employed.

The nature of data set [2]: Postemergence herbicidal activity (% control) against dicot weeds. The settings on record: post-emergence, 336 h; for activity at 4483.4 g/ha: read-out: Herbicidal activity (% control), postemergence, dicots, 4 lb./A., average, about two weeks after application.
The next data set has as its system rice. The experiment in a line: Crop tolerance (selective herbicidal activity), rice. It is filed as in vivo.
The test system of the next data set is soybeans. The experiment in a line: Crop tolerance (selective herbicidal activity), soybeans. It is filed as in vivo.
In a further data set the test system is safflower. The experiment in a line: Crop tolerance (selective herbicidal activity), safflower. It is filed as in vivo. As to conditions: preemergence applications. The protocol: as §10
(§11) Following the general test procedure of Example 37, diphenyl ethers are evaluated for significant tolerance (as shown by 50% or less kill of the test crop at levels of application which give more than 50% kill of many or all of the weeds of Example 73) towards some or all of the following common agronomic crops (not all compounds tested against all crops): alfalfa, snapbeans, corn, cotton, cucumbers, peanuts, rape, rice, safflower, soybeans, tomatoes, and wheat.

The subject of the next data set is cotton. Put plainly: Crop tolerance (selective herbicidal activity), cotton. The data set is classed as in vivo. On the procedure: as §10, §11
In another data set the test system is peanuts. The experiment in a line: Crop tolerance (selective herbicidal activity), peanuts. It is filed as in vivo.
Data set [3] is described as follows: Preemergence herbicidal activity (% control) against dicot weeds. As to conditions: pre-emergence, 336 h; for activity at 4483.4 g/ha: read-out: Herbicidal activity (% control), preemergence, dicots, 4 lb./A., average, about two weeks after application.
Data set [4] in a line: Postemergence herbicidal activity (% control) against monocot weeds. It is filed as in vivo. The settings on record: post-emergence, 336 h, average, read-out: Herbicidal activity (% control), postemergence, monocots; for activity at 4483.4 g/ha: 4 lb./A.
Description: as §1, §2, §3, §4, §5, §6, §7, §8, §9, §10

In the next data set the test system is corn. Put plainly: Crop tolerance (selective herbicidal activity), corn. The data set is classed as in vivo.
For another data set, the system named is snapbeans. The experiment in a line: Crop tolerance (selective herbicidal activity), snapbeans. It is filed as in vivo. As to conditions: preemergence applications. On the procedure: as §10, §11
The next data set relates to wheat. Put plainly: Crop tolerance (selective herbicidal activity), wheat. The data set is classed as in vivo.
Setting [5] is: about two weeks after application.
Setting [6] is: 10 lb./A., about two weeks after application.
[7] abbreviates: postemergence or layby applications.

On to `CCOc1cc(Oc2ccc(C(F)(F)F)cc2Cl)ccc1[N+](=O)[O-]` [Example 3, 2-Chloro-α,α,α-trifluoro-p-tolyl-3-ethoxy-4-nitrophenyl ether], for which the pest or weed control at 280.212 g/ha came out at 84% in data set [1] (1/4 lb./A.) and 66% in [3] (read-out: Herbicidal activity (% control), preemergence, dicots). Moreover, the activity at 4483.4 g/ha in data set [1] (setting [5]) came to 89%; in [2], 100%; in data set [3], 99%; in [4] (setting [5]), 99%. Besides, the activity at 11208.5 g/ha in [1] (setting [6]) was 99%; in data set [2] (read-out: Herbicidal activity (% control), postemergence, dicots, 10 lb./A., average, about two weeks after application) it was 100%; in data set [3] (read-out: Herbicidal activity (% control), preemergence, dicots, 10 lb./A., average, about two weeks after application), 100%; in data set [4] (setting [6]) it was 100%. Also, the pest or weed control at 560.425 g/ha in data set [2] (read-out: Herbicidal activity (% control), postemergence, dicots) was determined as 97%; in data set [4] (1/2 lb./A. (footnote +)), 96%. Moreover, the Tolerance to rice entry in the data set with rice (postemergence applications or applications on transplanted rice) is given as “Tolerance (significant tolerance (as shown by 50% or less kill of the test crop at levels of application which give more than 50% kill of many or all of the weeds of Example 73))”. The Tolerance to soybeans entry in the data set with soybeans (setting [7]) and in the data set on soybeans (preemergence applications) was “Tolerance (significant tolerance (as shown by 50% or less kill of the test crop at levels of application which give more than 50% kill of many or all of the weeds of Example 73))” in each case. For the same molecule, in the data set on safflower, the Tolerance to safflower entry is on record as “Tolerance (significant tolerance (as shown by 50% or less kill of the test crop at levels of application which give more than 50% kill of many or all of the weeds of Example 73))”. For the same molecule, the Tolerance to cotton result in the data set on cotton (setting [7]) and in the data set on cotton (preemergence applications) was “Tolerance (significant tolerance (as shown by 50% or less kill of the test crop at levels of application which give more than 50% kill of many or all of the weeds of Example 73))” throughout. In addition, in the data set on peanuts (preemergence applications), the Tolerance to peanuts result is listed as “Tolerance (significant tolerance (as shown by 50% or less kill of the test crop at levels of application which give more than 50% kill of many or all of the weeds of Example 73))”.

As to `CC(C)Oc1cc(Oc2ccc(C(F)(F)F)cc2Cl)ccc1[N+](=O)[O-]` [Example 4], the activity at 4483.4 g/ha stood at 98% in data set [1] (setting [5]), 100% in data set [2], 100% in data set [3] and 80% in data set [4] (setting [5]). The Tolerance to corn result in the data set with corn (postemergence applications) and with corn (preemergence applications) was “Tolerance (significant tolerance (as shown by 50% or less kill of the test crop at levels of application which give more than 50% kill of many or all of the weeds of Example 73))” each time. The Tolerance to rice result with rice (preemergence applications) is recorded as “Tolerance (significant tolerance (as shown by 50% or less kill of the test crop at levels of application which give more than 50% kill of many or all of the weeds of Example 73))”. Also, the Tolerance to soybeans result with soybeans (preemergence applications) was “Tolerance (significant tolerance (as shown by 50% or less kill of the test crop at levels of application which give more than 50% kill of many or all of the weeds of Example 73))”. Further, in the data set with cotton (preemergence applications), the Tolerance to cotton entry was “Tolerance (significant tolerance (as shown by 50% or less kill of the test crop at levels of application which give more than 50% kill of many or all of the weeds of Example 73))”. Besides, the Tolerance to snapbeans result in the data set on snapbeans is reported as “Tolerance (significant tolerance (as shown by 50% or less kill of the test crop at levels of application which give more than 50% kill of many or all of the weeds of Example 73))”. In the data set on peanuts (postemergence applications), the Tolerance to peanuts result is “Tolerance (significant tolerance (as shown by 50% or less kill of the test crop at levels of application which give more than 50% kill of many or all of the weeds of Example 73))”. For the same molecule, the Tolerance to wheat entry in the data set with wheat (postemergence applications) and with wheat (preemergence applications) was “Tolerance (significant tolerance (as shown by 50% or less kill of the test crop at levels of application which give more than 50% kill of many or all of the weeds of Example 73))” each time.
